Legend:
H3 receptor = target: T1, H3 receptor (Rattus norvegicus, UniProt Q9QYN8); test: imetit-induced dipsogenia test; type: in vivo, Harlan Wistar rats; details: rats, test compound p.o. 30 min before imetit 3 mg/kg sc.; reversal of water intake
T1 construct: from tissue; host or cells: whole living rat (central H3 receptors); animals from Janvier Elevage, France
Excerpt: Brain penetrant histamine H3 receptor agonists such as R-α-methylhistamine and imetit cause an acute increase in water intake in rodents (Galici et al., 2009; Barbier et al., 2007; Clapham and Kilpatrick, 1993; Garbarg et al., 1993). This dipsogenic effect is specific to H3 receptor activation as it can be antagonized selectively by centrally acting H3 antagonists (e.g., thioperamide or clobenpropit) and not by H1 or H2 […] such as mepyramide or loxtidine, respectively (Fox et al., 2002; Clapham and Kilpatrick, 1992). Therefore, the inhibition of H3 receptor-mediated dipsogenia can be used as a central pharmacodynamic measure of in vivo H3 receptor function following peripheral administration of antagonist/inverse agonist compounds (Raddatz et al., 2012; Medhurst et al., 2007; Fox et al., 2005).
The protocol has been derived from Clapham and Kilpatrick (1992) with modifications. Group-housed adult male Harlan Wistar rats (Janvier Elevage, France) (340-500 g at the time of testing) were used as experimental animals. Rats were repeatedly used for testing for a maximum of four to five times with one week of wash-out period between testing days. Before commencing drug-testing sessions, animals were first habituated to the test procedure without receiving any drug treatment. On habituation days animals were administered 5 mL/kg distilled water p.o. and 30 min later 1 mL/kg physiological saline was injected sc., while drinking water was withdrawn from the home-cages. After a further 30 min, rats were isolated in test cages, where they had access to tap water, but not to chow. Water consumption was measured 30 min later. Rats that had drunken at least 0.2 g water during this period were randomized into treatment groups. On experimental days animals were administered the test compound or vehicle p.o. and 30 min later 3 mg/kg of the H3 receptor agonist imetit was injected sc. Investigational compounds were given in a volume of 5 mL/kg. Imetit dihydrobromide (Tocris, UK) was dissolved in physiological saline and administered in a volume of 1 mL/kg. Directly after treatment with imetit, drinking water was withdrawn from the home-cages. After an additional 30 min, rats were isolated to test cages, where they had access to tap water, but not to chow. Water consumption was measured after a free drinking period of 10 min.
Means ± S.E. of water intake (in grams) were calculated for each group. Significance of drug effect was determined by ANOVA followed by the post hoc Duncan-test. Significance was considered at the p<0.05 level. The percental reversal of imetit-induced water intake was calculated from the group means using the formula as follows, percental reversal of dipsogenia equals 1-((IME-DRUG)/(IME-VEH))·100, where IME is water intake of the p.o. vehicle plus imetit group, VEH is water intake of p.o. vehicle plus sc. vehicle group, and DRUG is water intake of p.o. test compound plus sc. […] group. Percental reversal was plotted for each dose and an ED50 value was calculated from the fitted curve (reversal values greater than 100% were taken into account as 100% reversal) based on linear regression.

[1] = system: prenatally valproate treated rats; test: tactile sensitivity measurement with von Frey filaments in the prenatal valproate model; type: in vivo, Wistar rats; details: p.o., 60 min after treatment, 18-day-old rats
Excerpt: The prenatal valproate (VPA) model has excellent construct and face validity, therefore it is a widely accepted disease model of ASD. With respect to face validity, prenatal VPA exposure may lead to socio-communicational defects, excessive repetitive behaviors and increased sensitivity of various modalities (e.g., touch). […] Compounds that produced efficacy signals in ASD subjects comprise eg., oxytocin (Andari et al., PNAS 2010, 107:4389-4394).
In this method, time-mated female Wistar rats are administered a single dose of VPA (300 mg/kg, i.p.) on gestational day 12.5. Offspring are housed according to standard laboratory conditions until time of behavioral testing. Animals are housed in groups of 4 in conventional cages and maintained at 22-24°C on a standard 12-hour light/dark cycle, with food and water available ad libitum. […]
During the measurement with von Frey filaments, 18-day-old rats were placed separately in small cages (dimensions: 7 x 7 x 9 cm) with mesh floors. […] First, a baseline sensitivity value was determined, and animals were randomized into treatment groups based on this baseline. Sixty min after p.o. treatment sensitivity was measured again. A 50% sensitivity threshold was calculated based on the value of the last measured fiber thickness and the application pattern of the various filament thicknesses. […]

BALB/C mice = test: three-chamber assay, social novelty session, BALB/C mouse model of ASD; type: in vivo; details: 10 mg/kg (top dose); ** p<0.01 vs. familiar
Excerpt: The BALB/c mouse is a low-sociability, inbred line that is accepted as an idiopathic model of ASD (Brodkin, 2007; Burket et al., 2020; Ellegood, 2015; Jacome et al., 2011). Although the precise background of behavior is not known, the line carries a loss of function single nucleotide polymorphism in the tryptophane hydroxylase gene causing a 50% reduction in enzyme function (Russo et al., 2018). […] This model also has some predictive validity as some compounds that produced efficacy signals in humans have also been active in BALB/c mice such as D-cycloserine (Deutsch et al., 2012) or oxytocin (Teng et al., 2013).
The three-chamber assay was performed in an 8-channel LABORAS™ sociability system (Metris b.v., Hoofdorp, The Netherlands). […] Consequently, movements of target mice were not recorded. Just like in the classical LABORASTM set-up (Van de Weerd et al., 2001; Quinn et al., 2003), mechanical vibration generated by movement of the animals was transformed to electrical signals that were analyzed and the trajectory of the animals was determined. […]
During the behavioral assays, test mice were habituated first to the center compartment of the three-chamber apparatus with the guillotine doors closed for 2 min. […] During this test session the time spent in the center chamber as well as with direct contact or no contact on the social versus non-social side was recorded. […]

monoamine oxidase A = details: human and rat enzyme; cited from earlier work
monoamine oxidase B = details: human and rat enzyme; slight preference for monoamine oxidase B; cited from earlier work
[2] = 3 mg/kg intraperitoneally; cited from earlier work
[3] = system: prenatal valproate model of ASD in mice; details: 3 mg/kg intraperitoneally; cited from earlier work

T1 sequence (Q9QYN8 whole entry): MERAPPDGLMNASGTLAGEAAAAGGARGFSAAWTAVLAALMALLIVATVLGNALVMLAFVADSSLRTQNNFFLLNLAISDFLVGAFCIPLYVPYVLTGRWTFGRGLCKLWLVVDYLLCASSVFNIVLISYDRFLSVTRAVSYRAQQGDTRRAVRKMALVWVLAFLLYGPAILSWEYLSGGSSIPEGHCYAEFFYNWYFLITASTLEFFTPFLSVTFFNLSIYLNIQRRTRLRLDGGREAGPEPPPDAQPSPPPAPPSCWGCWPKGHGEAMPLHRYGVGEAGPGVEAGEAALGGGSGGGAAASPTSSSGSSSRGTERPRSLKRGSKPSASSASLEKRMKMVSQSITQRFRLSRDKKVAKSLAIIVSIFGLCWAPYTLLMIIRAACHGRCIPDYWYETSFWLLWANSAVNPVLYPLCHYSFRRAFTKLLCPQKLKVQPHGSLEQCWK

| Structure (SMILES) | imetit-induced dipsogenia ED50 (H3 receptor) [mg/kg p.o.] | other results |
| --- | --- | --- |
| C[C@@H]1CCCN1CCc1cc2cc(-c3ccc(C#N)cc3)ccc2o1 [ABT-239, 4-(2-{2-[(2R)-2-Methylpyrrolidin-1-yl]ethyl}-benzofuran-5-vl)benzonitrile] | 0.26 | – |
| CNC(=O)c1ccc(Oc2ccc3c(c2)CCN(C2CCC2)CC3)nc1 [GSK-189254, 6-[(3-cyclobutyl-1,2,4,5-tetrahydro-3-benzazepin-7-yl)oxy]-N-methylpyridine-3-carboxamide] | 0.14 | tactile hypersensitivity (threshold level of paw withdrawal to von Frey filaments) ([1]; 0.1 mg/kg (middle dose), + p<0.05 vs. VPA, inverted U-shaped dose-response curve): reversed this tactile hypersensitivity |
| Cn1nc(N2CCC(OC(=O)N3CCN(C4CCC4)CC3)CC2)ccc1=O [LML-134, 1-(1-methyl-6-oxo-1,6-dihydropyridazin-3-yl)piperidin-4-yl 4-cyclobutylpiperazine-1-carboxylate] | < 1 | social novelty (time spent with investigation of the novel animal) (BALB/C mice): improve social novelty; tactile hypersensitivity (threshold level of paw withdrawal to von Frey filaments) ([1]; 10 mg/kg (top dose), ++ p<0.01 vs. VPA): reversed this tactile hypersensitivity |
| CCNC(=O)C1CC(F)(c2ccc(CN3CCCC3)c(F)c2)C1 (stereo not drawn) [PF-03654746, trans-N-Ethyl-3-fluoro-3-[3-fluoro-4-(1pyrrolidinylmethyl)phenyl]cyclobutanecarboxamide] | 0.78 | – |
| O=C(c1ccc(CN2CCOCC2)cc1)N1CCN(C2CC2)CC1 [bavisant, (4-cyclopropylpiperazin-1-yl)-[4-(morpholin-4-ylmethyl)phenyl]methanone] | < 0.3 | – |
| O=C(c1ccc(OCCCc2cnc[nH]2)cc1)C1CC1 [ciproxifan] | – | inhibition of monoamine oxidase A (monoamine oxidase A): micromolar concentration range; inhibition of monoamine oxidase B (monoamine oxidase B): micromolar concentration range; plasma exposures [2]: micromolar range; social deficits and excessive repetitive behavior [3]: improved social deficits and excessive repetitive behavior |
| Clc1ccc(CCCOCCCN2CCCCC2)cc1 [pitolisant, 1-[3-[3-(4-chlorophenyl)propoxy]propyl]piperidine] | 11 | – |
| O=C(CN1CCOCC1)Nc1ccc(OC2CCN(C3CCC3)CC2)cc1 [samelisant, N-{4-[(1-cyclobutylpiperidin-4-yl)oxy]phenyl}-2-(morpholin-4-yl)acetamide] | < 1 | – |

Reference: patent EP4251148B1, “HISTAMINE H3 RECEPTOR ANTAGONISTS/INVERSE AGONISTS FOR THE TREATMENT OF AUTISM SPECTRUM DISORDER” (Richter Gedeon Nyrt., priority 2020, dated 2022)
